According to US12215081B2, “Pharmaceutical intermediate” (ZAKLADY FARM[…] S.A., priority 2019, dated 2025):

Experiment: Stability of 4-(4-fluorobenzylamino)-1-methylpiperidine (oil) and its trihydrate stored in a sealed container, purity and impurities over time
Type: physicochemical
Conditions: for decrease in purity: crude oil, sealed container
Procedure: The stability of the crude 4-(4-fluorobenzylamino)-1-methylpiperidine oil obtained by the process described in Example 1 was also assessed.
The crude 4-(4-fluorobenzylamino)-1-methylpiperidine oil decreased in purity by 0.5% after 1 month and 0.7% after 2.5 months.

[1] = Batch 3, sealed container, 0 months
[2] = Batch 3, sealed container, 1 month
[3] = Batch 4, sealed container, 0 months
[4] = Batch 4, sealed container, 2.5 months

| Structure (SMILES) | Amine purity [1] | impurity I (% impurity) [1] | impurity II (% impurity) [1] | impurity III (% impurity) [1] | Amine purity [2] | impurity I (% impurity) [2] | impurity II (% impurity) [2] | impurity III (% impurity) [2] | Amine purity [3] | impurity I (% impurity) [3] | impurity II (% impurity) [3] | impurity III (% impurity) [3] | Amine purity [4] | impurity I (% impurity) [4] | impurity II (% impurity) [4] | impurity III (% impurity) [4] | decrease in purity (after 1 month) | decrease in purity (after 2.5 months) | stability on storage (decomposition) (stored under the same conditions as the amine oil (sealed container)) |
| --- | --- | --- | --- | --- | --- | --- | --- | --- | --- | --- | --- | --- | --- | --- | --- | --- | --- | --- | --- |
| CN1CCC(NCc2ccc(F)cc2)CC1 [4-(4-fluorobenzylamino)-1-methylpiperidine] | Amine - 98.17% pure | I/(0.21) % | II/(0.12) % | III/(0.27) % | Amine - 97.66% pure | I/(0.26) % | II/(0.21) % | III/(0.59) % | Amine - 97.82% pure | I/(0.23) % | II/(0.12) % | III/(0.68) % | Amine - 97.09% pure | I/(0.18) % | II/(0.14) % | III/(1.15) % | 0.5% | 0.7% | – |
| CN1CCC(NCc2ccc(F)cc2)CC1 [4-(4-fluorobenzylamino)-1-methylpiperidine trihydrate] | – | – | – | – | – | – | – | – | – | – | – | – | – | – | – | – | – | – | stable, and no decomposition was observed |
